This note sets out measurements from PMC8684776, “Discovery and characterization of potent And‐1 inhibitors for cancer treatment” (Clinical and Translational Medicine, 2021).

Molecules are shown by their SMILES.

The test system of one test is IGROV1 CR cells. The test can be described thus: SRB cell viability assay, combination with cisplatin. Format: cell-based, human. Particulars: by combination index (CI < 1 synergism). On the procedure:
The assay was as previously described.[45]
Synergy of each combination was indicated as combination index (CI) values. […] (C) Tumors of IGROV1 CR xenograft treated with control (vehicle), cisplatin (8 mg/kg/day intraperitoneally), CH3 (20 mg/kg/3days intraperitoneally), or a combination of CH3 and cisplatin for 3 weeks. Ruler scale is in centimeters. (D) Growth curves of IGROV1 CR xenografts. […] (E) IHC staining against And‐1 antibodies of tumor samples from four treated groups of mice. Scale bar: 50 μm. […] Ruler scale is in centimeters. (G) Growth curves of IGROV1 CR xenografts. […] (H) IHC staining against And‐1 antibodies of tumor samples from four treated groups of mice. Scale bar: 50 μm.

Test [1] relates to IGROV1 cells. The test can be described thus: Immunofluorescence of CtIP recruitment to micro-irradiation induced DSB sites. Type of test: cell-based, human. The following applies: 1 µM. On the procedure:
(§1) Supplementary Figure S1. Identification of novel And-1 inhibitors. […]
siAnd-1. S: S phase. (D) Immunofluorescence assay to detect CtIP and γH2AX foci formation after CH3 […]
IGROV1 cells treated with DMSO, 1 […]
to immunostain γH2AX and CtIP. For each experiment, 50 cells were counted and the percentage of cells with co-localization of γH2AX and CtIP foci was determined. Data represent means ± SEM from three independent experiments. (E) HR reporter assay to detect HR repair efficiency in cells treated with CH3. […]

Test [2] has as its system IGROV1 cells. Description: HR reporter assay. Format: cell-based, human. The following applies: CH3 2 µM or 4 µM. On the procedure:
as §1
(E) HR reporter assay to detect HR repair efficiency in cells treated with CH3.
IGROV1 cells treated with DMSO, 2 µM or 4 µM of CH3 were subjected to HR reporter assay and the
percentage of GFP-positive cells was determined by flow cytometry 48 h after I-SceI plasmid transfection.
HR efficiency were normalized to those obtained from cells treated with DMSO. Data represent means ±
SEM from three independent experiments. (F) HR reporter assay to detect HR repair efficiency in cells
treated with BZA using approaches as in E.
For orientation: In a reporter assay the amount or activity of a reporter protein is the signal.

For another test, the target named is T1, And‐1 (Homo sapiens, UniProt O75717).
T1 construct: expressed in transfected cells
T1 sequence (O75717 1-1129): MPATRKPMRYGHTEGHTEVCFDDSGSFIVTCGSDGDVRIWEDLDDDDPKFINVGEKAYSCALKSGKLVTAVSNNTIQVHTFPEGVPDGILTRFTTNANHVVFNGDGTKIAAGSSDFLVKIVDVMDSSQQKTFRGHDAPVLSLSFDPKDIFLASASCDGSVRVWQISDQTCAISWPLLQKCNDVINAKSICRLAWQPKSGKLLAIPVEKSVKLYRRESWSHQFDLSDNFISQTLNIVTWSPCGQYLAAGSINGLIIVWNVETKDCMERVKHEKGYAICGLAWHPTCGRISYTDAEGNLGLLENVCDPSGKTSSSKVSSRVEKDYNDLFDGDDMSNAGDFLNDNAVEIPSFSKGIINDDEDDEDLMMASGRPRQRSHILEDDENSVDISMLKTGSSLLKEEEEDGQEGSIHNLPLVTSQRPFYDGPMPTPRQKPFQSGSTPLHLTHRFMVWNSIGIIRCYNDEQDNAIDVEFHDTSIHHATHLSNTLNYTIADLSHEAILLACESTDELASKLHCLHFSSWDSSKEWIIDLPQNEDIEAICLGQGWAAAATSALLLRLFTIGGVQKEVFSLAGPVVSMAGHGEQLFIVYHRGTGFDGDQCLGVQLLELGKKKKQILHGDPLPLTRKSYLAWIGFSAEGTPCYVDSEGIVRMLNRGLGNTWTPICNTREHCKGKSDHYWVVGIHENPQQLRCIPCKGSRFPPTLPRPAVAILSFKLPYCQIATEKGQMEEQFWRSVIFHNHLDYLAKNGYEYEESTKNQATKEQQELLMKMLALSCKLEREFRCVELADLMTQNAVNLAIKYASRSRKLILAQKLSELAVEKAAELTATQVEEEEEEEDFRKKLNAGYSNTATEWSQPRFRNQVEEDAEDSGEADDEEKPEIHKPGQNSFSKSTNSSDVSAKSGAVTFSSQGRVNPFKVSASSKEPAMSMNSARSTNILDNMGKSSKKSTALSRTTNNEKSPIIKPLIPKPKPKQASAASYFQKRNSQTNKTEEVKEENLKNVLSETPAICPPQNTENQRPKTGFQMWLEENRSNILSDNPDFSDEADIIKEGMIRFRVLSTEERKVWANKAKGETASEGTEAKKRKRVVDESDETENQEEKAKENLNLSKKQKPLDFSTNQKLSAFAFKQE
Description: Cellular thermal shift assay. Format: binding. Particulars: IGROV1 cells, higher temperature, compared to DMSO.

The next test relates to IGROV1 xenografts. The test can be described thus: IGROV1 xenograft in nude mice. Type of test: in vivo, mouse. The protocol:
(A) Tumours of IGROV1 xenograft treated with vehicle or CH3 (20 or 40 mg/kg/3days intraperitoneally) for 3 weeks. Ruler scale is in centimeters. (B) Growth curves of IGROV1 xenografts. Data are represented as means ± SEM. ****p < 0.0001. (C) IHC staining against acidic nucleoplasmic DNA‐binding protein 1 (And‐1) and cleaved‐caspase3 antibodies of tumor samples from 3 groups of mice. Scale bar: 50 μm. Lower panel, quantification of And‐1and cleaved‐caspase 3 IHC score in tumors treated in A. ****p < 0.0001. (D) Tumors of MCF7 xenograft treated with vehicle or CH3 (20 or 40 mg/kg/3days intraperitoneally) for 3 weeks. Ruler scale is in centimeters. (E) Growth curves of MCF7 xenografts. Data are represented as means ± SEM. ****p < 0.0001. (F) IHC staining against And‐1 and cleaved‐caspase3 antibodies of tumor samples from three treated groups of mice. Scale bar: 50 μm. Lower panel, quantification of And‐1and cleaved‐caspase 3 IHC score in tumors treated in (D). *p < 0.1; **p < 0.01; ***p < 0.001; ****p < 0.0001
into subsequent experiment groups.
represent the longest and shortest diameters, respectively. During the drug treatment, the tumor volume
and body weight were measured. […]

Turning to `OB1OCc2cc(/C=C/c3ccc(Cl)c(Cl)c3)ccc21` [CH3, (E)‐5‐(3,4‐dichlorostyryl)benzo[c][1,2]oxaborol‐1(3H)‐ol], the “synergy with cisplatin to inhibit cell proliferation” value in the test on IGROV1 CR cells was “significant synergy with cisplatin”. Moreover, the “recruitment of CtIP to DSB sites induced by micro‐irradiation” value in the test with IGROV1 cells [1] is “significantly decreased”. Moreover, the HR efficiency result in the test on IGROV1 cells [2] was “profoundly reduced HR efficiency”. For the same molecule, the “thermal stability of And‐1 protein” value at And‐1 is on record as “stabilized”. For the same molecule, in the test with IGROV1 xenografts (IGROV1 xenograft tumors), the “And‐1 expression in tumor tissues (IHC)” value is given as “inhibited And‐1 expression” and the “cleaved caspase‐3 expression in tumor tissues (IHC)” value is reported as “induced the expression of cleaved caspase‐3”. Besides, in the test on IGROV1 xenografts (ovarian IGROV1 xenografts, nude mice, 20 mg/kg or 40 mg/kg intraperitoneal, 3 weeks), the tumor growth entry is recorded as “significantly reduced tumor growth”.
